Legend:
[1] = system: male C57B1/6 mice; test: Blockade of Δ^9-THC induced hypolocomotion in mice; type: in vivo; settings: p.o.; antagonism of reduction in locomotor behaviour induced by 3 mg/kg i.p. Δ^9-THC
Procedure: The in vivo activity of compounds of formula (I) was assayed for ability to antagonise the reduction in locomotor behaviour induced by acute systemic administration of Δ^9-THC in male C57B1/6 mice. The procedure was as follows.
Test compounds are assessed following acute oral or intraperitoneal administration at a dose of 30 mg/kg.
The route of test compound administration, drug volume and injection-test-interval are dependent upon the compounds used. 10 min before testing, a 3 mg/kg dose Δ^9-THC (or vehicle) is administered to mice by the i.p. route. […] The light beams are arranged on a 7 by 4 matrix on a metal grid. 16 grids are connected in series and Perspex boxes, 20 (width)×40 (length)×20 (height) cm, with a flat perforated, Perspex lid are placed in each grid. Mice are placed singly in Perspex boxes and the recording of activity in all 16 boxes starts simultaneously. The mice are left undisturbed to explore the novel activity monitor boxes for 15 minutes while beam breaks are recorded.
Locomotor activity data are subjected to one-way analysis of variance (ANOVA) with drug treatment as a between-subjects factor. […] Significant differences between the vehicle/Δ^9-THC group and Test compound/Δ^9-THC groups are assessed by Newman-Keuls test. All statistical analyses were performed using Statistica Software, Version 6.0 (Statsoft Inc.) and Microsoft Excel 7.0 (Microsoft Corp.).

[2] = molecular target: T1, recombinant human CB1 receptors (Homo sapiens, UniProt P21554); test: Binding to CB1 receptors; settings: [^3H]-SR-141716A 1 nM; membranes from HEK293 cells expressing recombinant hCB1; Ki calculated from IC50 by Cheng-Prusoff
T1 construct: expressed in transfected cells; host or cells: HEK293 cells (membranes)
T1 sequence (P21554 whole entry): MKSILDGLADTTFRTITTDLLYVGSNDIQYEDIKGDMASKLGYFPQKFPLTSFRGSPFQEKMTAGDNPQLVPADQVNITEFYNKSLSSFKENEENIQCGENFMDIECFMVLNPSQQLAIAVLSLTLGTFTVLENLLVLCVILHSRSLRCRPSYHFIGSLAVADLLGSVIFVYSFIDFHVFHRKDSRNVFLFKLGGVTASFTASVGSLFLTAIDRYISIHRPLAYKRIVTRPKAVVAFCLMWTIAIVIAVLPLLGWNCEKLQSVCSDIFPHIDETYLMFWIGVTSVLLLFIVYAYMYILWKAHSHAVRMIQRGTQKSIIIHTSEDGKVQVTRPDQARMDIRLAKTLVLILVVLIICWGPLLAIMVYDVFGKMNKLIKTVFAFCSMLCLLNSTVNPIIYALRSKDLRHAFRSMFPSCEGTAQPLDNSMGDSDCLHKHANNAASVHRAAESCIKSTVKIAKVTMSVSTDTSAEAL
Procedure: The binding of compounds of Formula I to recombinant human CB1 receptors was determined in vitro by standard methods, with reference to the procedure described by Rinaldi-Carmona et al. (Rinaldi-Camona, M., Pialot, F., Congy, C., Redon, E., Barth, F., Bachy, A., Breliere, J. C., Soubre, P., LeFur, G., Life Sci. 1996, 58(15), 1239-1247). Membranes were prepared from HEK293 cells expressing recombinant hCB1 receptors. Binding assays are performed in a total volume of 250 μL, containing [^3H]—SR-141716A (1 nM final concentration), membranes and test compound. Non-specific binding is determined using CP55,940 (10 μM). Serial dilutions are performed starting from test compounds as 10 mM solutions in DMSO. Compounds are tested over the concentration range 10^−10 M to 10^−5 M. Ki values are calculated from IC50 values using the Cheng-Prusoff equation.

[3] = system: male food-deprived Lister-hooded rats; test: Regulation of feeding behaviour (food consumption); type: in vivo; settings: p.o.; acute administration; food consumption after 18-hour food withdrawal
Procedure: The in vivo activity of compounds of formula (I) was assayed for ability to regulate feeding behaviour by measuring food consumption in male food-deprived Lister-hooded rats as follows.
Test compounds are assessed following acute administration.
The anorectic drug sibutramine, or the reference CB1 receptor antagonist, SR141716A, normally serves as a positive control. The route of drug administration, drug volume and injection-test-interval are dependent upon the compounds used. The injection-test-interval is the time between dosing and food re-presentation. Typically, animals are fasted such that at the time of food re-presentation food has been withdrawn for an 18-hour period. Food consumption is assayed at pre-determined time points (typically 1, 2 and 4 hours after administration). Food intake data are subjected to one-way analysis of variance (ANOVA) with drug as a between-subjects factor. […] All statistical analyses were performed using Statistica Software, Version 6.0 (Statsoft Inc.) and Microsoft Excel 7.0 (Microsoft Corp.).

Row | SMILES | Active dose (mg/kg), route [1] | Ki [2] [nM] | M.E.D (mg/kg), route [3]
1 | CC(C)(C)NC(=O)N1CC(OC(c2ccc(Cl)cc2)c2ccccc2C(F)(F)F)C1 (racemic) [Example 81, 3-[2-(trifluoromethyl)-4′-chlorobenzhydryloxy]-N-(tert-butyl)azetidine-1-carboxamide] | 30, p.o. mg/kg | 2.3 | 3, p.o. mg/kg
2 | CC(C)(C)NC(=O)N1CC(OC(c2ccc(Cl)cc2)c2ccccc2C(F)(F)F)C1 (single isomer, unassigned) [Example 139, 3-[(R*)-2-(trifluoromethyl)-4′-chlorobenzhydryloxy]-N-(tert-butyl)-azetidine-1-carboxamide] |  | 0.6 | 1, p.o. mg/kg
3 | CC(C)(C)NC(=O)N1CC(OC(c2ccc(S(C)(=O)=O)cc2)c2ccccc2C(F)(F)F)C1 (single isomer, unassigned) [Example 140, 3-[(S*)-2-(trifluoromethyl)-4′-(methylsulphonyl)benzhydryloxy]-N-(tert-butyl)azetidine-1-carboxamide] |  | 27 | 
4 | CC(C)(C)NC(=O)N1CC(OC(c2ccc(Cl)cc2)c2ccc(Cl)cc2Cl)C1 (centres unmarked) [Example 1, 3-(2,4,4′-trichlorobenzhydryloxy)-N-(tert-butyl)azetidine-1-carboxamide] | 30, p.o. mg/kg | 4.7 | 30, p.o. mg/kg
5 | CC(C)(C)NC(=O)N1CC(OC(c2ccc(Cl)cc2)c2ccccc2Cl)C1 (centres unmarked) [Example 4, 3-(2,4′-dichlorobenzhydryloxy)-N-(tert-butyl)azetidine-1-carboxamide] | 30, p.o. mg/kg | 4.5 | 30, p.o. mg/kg
6 | CC(C)(C)NC(=O)N1CC(OC(c2ccc(Cl)cc2)c2ccc(Cl)cc2)C1 [Example 28, 3-(4,4′-dichlorobenzhydryloxy)-N-(tert-butyl)azetidine-1-carboxamide] |  | 80 | 
7 | O=C(NC12CC3CC(CC(C3)C1)C2)N1CC(OC(c2ccc(Cl)cc2)c2ccc(Cl)cc2)C1 [Example 30, 3-(4,4′-dichlorobenzhydryloxy)-N-(1-adamantyl)azetidine-1-carboxamide] |  | 19 | 
8 | CC(C)(C)NC(=O)N1CC(OC(c2ccc(Br)cc2F)c2ccccc2C(F)(F)F)C1 (centres unmarked) [Example 94, 3-[2-(trifluoromethyl)-2′-fluoro-4′-bromobenzhydryloxy]-N-(tert-butyl)azetidine-1-carboxamide] | 30, p.o. mg/kg | 1.3 | 10, p.o. mg/kg
